Reference: patent US20020103105A1, “Use of selective dopamine D4 receptor agonists for treating sexual dysfunction” (priority 2000, published 2002)
Where “and” joins values, the source holds several entries; their conditions need not be identical. Equal values may be shown once. Read-outs that look alike come from different tables or passages of the source. Values belong to the compound of their own block, whether it stands above or below them.

Legend:
[1] = tested on: penile erection in Wistar rats; experiment: Rat penile erection model; format: in vivo; details: subcutaneous; for Incidence (%) of penile erections: 60 minutes observation; for facilitation of penile erections in rats (in words, with effective dose range): versus vehicle
Protocol: Wistar rats were used as a primary animal model to study penile erection in vivo. All experiments were carried out between 9:00 AM and 3:00 PM in a diffusely illuminated testing room with a red light. The rats were weighed and allowed to adapt to the testing room for 60 minutes before the beginning of experiments. Rats were placed in individual transparent cages (20×30×30 cm) after subcutaneous drug injection. The number of penile erections was recorded by direct observation for a period of 60 minutes after drug dosing.

human D4 receptor [2] = biological target: T1, human D4 receptor (Homo sapiens, UniProt P21917); set-up: expressed in transfected cells; details: CHO cells, read-out: EC50 inhibition of forskolin-stimulated cAMP accumulation; cited from earlier work
T1 sequence (P21917 1-419): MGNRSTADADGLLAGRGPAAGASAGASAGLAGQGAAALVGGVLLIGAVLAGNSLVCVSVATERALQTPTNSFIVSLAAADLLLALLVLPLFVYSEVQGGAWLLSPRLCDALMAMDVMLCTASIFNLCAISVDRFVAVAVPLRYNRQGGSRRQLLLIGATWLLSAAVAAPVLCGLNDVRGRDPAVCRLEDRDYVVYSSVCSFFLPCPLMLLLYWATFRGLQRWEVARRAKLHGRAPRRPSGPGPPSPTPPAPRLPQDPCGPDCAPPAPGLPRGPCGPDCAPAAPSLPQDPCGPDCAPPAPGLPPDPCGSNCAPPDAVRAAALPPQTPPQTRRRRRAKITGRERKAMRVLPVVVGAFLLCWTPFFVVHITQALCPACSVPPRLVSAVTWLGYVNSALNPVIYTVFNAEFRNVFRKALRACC

dopamine D4 receptor [3] = biological target: T2, dopamine D4 receptor (Homo sapiens, UniProt P21917); details: cited literature; cited from earlier work
T2 sequence (P21917 1-419): T1 sequence (P21917 1-419)

dopamine D2 receptor = biological target: T3, dopamine D2 receptor (Homo sapiens, UniProt P14416); experiment: Dopamine D2 binding assay ([3H]-spiperone, membranes of transfected A9L cells, run by Cerep); details: recombinant human D2, [3H]-spiperone 0.3 nM
T3 construct: host or cells: A9L cells (membranes)
Protocol: (§1) The dopamine D2 and D4 binding assays, used to determine binding affinities (Ki) illustrated in Table 1, were conducted according to standard procedures known to those in the art and are summarized herein.
(§2) Briefly, receptor binding assays at the dopamine D2 and D4 receptors were carried out in membranes from cell lines expressing the recombinant human subtypes. […] Specific binding was defined as the difference between total binding and nonspecific binding. Ki values were determined using the Cheng-Prusoff equation and are illustrated in Table 1.

dopamine D4 receptor [4] = biological target: T2, dopamine D4 receptor; experiment: Dopamine D4 binding assay ([3H]-spiperone, membranes of transfected CHO cells, run by Cerep); set-up: host or cells: CHO cells (membranes); details: recombinant human D4, [3H]-spiperone 0.5 nM
Protocol: as §1, §2

human D4 receptor [5] = biological target: T1, human D4 receptor; experiment: FLIPR calcium assay in HEK293 cells expressing human D4 receptor co-transfected with Gqo5 chimera; format: cell-based; set-up: expressed in transfected cells; host or cells: HEK293 cells, stably transfected, with Gqo5 chimera
Protocol: The FLIPR assay is a functional assay that can be conducted in HEK293 cells expressing the human D4 receptor, co-transfected with the Gqo5 protein chimera. Expression of the G-protein chimera allows for the mobilization of intracellular calcium after activation of the D4 receptor. Cells are prepared by plating the stably transfected D4-HEK293 cells into each well of 96 well plates. Cells are cultured until they reach confluence (approximately 48 hours). Media is removed from the plate and media containing the fluorescent calcium detecting dye Fluo-4 is added. Cells are incubated at room temperature for one hour. Cells are then washed three times with phosphate buffered saline and 150 μl PBS is added. Compounds to be tested are diluted in a second 96-well plate. The plate containing the cells is placed in fluorescent plate reader (FLIPR) and the reaction is begun by adding 50 μl of compound solution to all the wells simultaneously. Fluorescent signal is measured for 60 seconds sampling at 1 second intervals. The signal derived from 10 μM dopamine is used as 100% and a compound dose-response curve is normalized to determine the percent efficacy relative to dopamine. Dose response curves are analyzed to determine EC50 (nM).

[6] = tested on: emesis in male Fitch ferrets; experiment: Emesis model in ferrets; format: in vivo; details: ferret, subcutaneous; for Incidence (%) of emesis: 90 minutes observation; for induction of emesis (in words): all doses tested
Protocol: Male Fitch ferrets (body weights 1.0-1.5 kg) were fasted overnight before experimentation. Animals were placed individually in observation cages following subcutaneous administration of drug and observed for drug-induced nausea and emesis for a period of 90 minutes following drug injection. Nausea was characterized by behaviors such as licking, gagging, backing, head burying, and intense abdominal grooming. Emesis was usually preceded by these behaviors and was characterized by rhythmic abdominal contractions which were associated with vomiting or retching movement. The number of ferrets induced to emesis was recorded and expressed as incidence (%) in Tables 5-7.

T3 sequence (P14416 whole entry): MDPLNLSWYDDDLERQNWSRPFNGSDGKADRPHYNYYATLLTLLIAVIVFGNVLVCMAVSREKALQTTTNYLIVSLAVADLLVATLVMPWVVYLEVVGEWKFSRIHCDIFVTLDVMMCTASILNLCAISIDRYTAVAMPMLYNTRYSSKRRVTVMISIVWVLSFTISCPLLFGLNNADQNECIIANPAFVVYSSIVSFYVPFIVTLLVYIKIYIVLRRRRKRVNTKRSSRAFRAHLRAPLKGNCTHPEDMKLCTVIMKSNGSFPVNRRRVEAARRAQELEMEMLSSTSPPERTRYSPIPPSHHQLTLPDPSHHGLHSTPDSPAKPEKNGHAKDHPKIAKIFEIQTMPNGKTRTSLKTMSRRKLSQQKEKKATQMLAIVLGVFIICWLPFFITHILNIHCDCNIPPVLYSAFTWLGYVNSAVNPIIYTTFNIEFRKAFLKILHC

SMILES: Fc1ccc2[nH]c(CN3CCN(c4ccccn4)CC3)cc2c1 [5-fluoro-2-{[4-(2-pyridinyl)-1-piperazinyl]methyl}-1H-indole]
Incidence (%) of penile erections ([1]; 0.3 μmol/kg): 60% | Incidence (%) of penile erections ([1]; 1.0 μmol/kg): 90% | Incidence (%) of penile erections ([1]; 3.0 μmol/kg): 90% | facilitation of penile erections in rats (in words, with effective dose range) [1]: significant facilitation of penile erections in rats for doses 1.0 μmol/kg and 3.0 μmol/kg | EC50 (human D4 receptor [2]): 5.8 nM | Ki (dopamine D4 receptor [3]): 6 nM | selectivity for dopamine D4 receptor compared to D2 receptor (literature) (dopamine D4 receptor [3]): > 100 fold | Ki (dopamine D2 receptor): > 1000 nM | Ki (dopamine D4 receptor [4]): 2.6 nM | EC50 (human D4 receptor [5]; D4-HEK293 cells, Gqo5): 32 nM | Emax (human D4 receptor [5]; HEK293, relative to 10 μM dopamine = 100%, read-out: Maximum Response FLIPR): 46% | agonism at D4 receptor in FLIPR assay (in words) (human D4 receptor [5]; Table A data): agonists | Incidence (%) of emesis ([6]; 0.1 μmol/kg): 0% | Incidence (%) of emesis ([6]; 0.3 μmol/kg): 0% | Incidence (%) of emesis ([6]; 1.0 μmol/kg): 0% | Incidence (%) of emesis ([6]; 3.0 μmol/kg): 0% | induction of emesis (in words) [6]: did not induce emesis at any dose

Ki (dopamine D2 receptor): > 1000 nM
SMILES: Cc1cccc(C(=O)NCN2CCN(c3ccccc3C#N)CC2)c1 [N-{[4-(2-cyanophenyl)-1-piperazinyl]methyl}-3-methylbenzamide]
Incidence (%) of penile erections ([1]; 0.03 μmol/kg): 42% | Incidence (%) of penile erections ([1]; 0.1 μmol/kg): 71% | Incidence (%) of penile erections ([1]; 0.3 μmol/kg): 79% | Incidence (%) of penile erections ([1]; 1.0 μmol/kg): 68% | facilitation of penile erections in rats (in words, with effective dose range) [1]: significant facilitation of penile erections in rats for doses 0.1 μmol/kg to 1.0 μmol/kg | Incidence (%) of emesis ([6]; 0.1 μmol/kg): 0% | Incidence (%) of emesis ([6]; 0.3 μmol/kg): 0% | Incidence (%) of emesis ([6]; 1.0 μmol/kg): 0% | Incidence (%) of emesis ([6]; 3.0 μmol/kg): 0% | induction of emesis (in words) [6]: did not induce emesis at any dose

SMILES: CN1CCc2cccc3c2C1Cc1ccc(O)c(O)c1-3 (stereo not shown) [Apomorphine, 5,6,6a,7-tetrahydro-6-methyl-4H-dibenzo[de,g]quinoline-10,11-diol]
Incidence (%) of penile erections ([1]; 0.003 μmol/kg): 28% | Incidence (%) of penile erections ([1]; 0.01 μmol/kg): 56% | Incidence (%) of penile erections ([1]; 0.03 μmol/kg): 69% | Incidence (%) of penile erections ([1]; 0.1 μmol/kg): 86% and 90% and 92% | Incidence (%) of penile erections ([1]; 0.1 μmol/kg, listed as apomorphine): 86% and 90% | Incidence (%) of penile erections ([1]; 0.3 μmol/kg): 66% | Incidence (%) of penile erections ([1]; 1.0 μmol/kg): 25% | facilitation of penile erections in rats (in words, with effective dose range) [1]: significant facilitation of penile erections in rats for doses 0.01 μmol/kg to 0.3 μmol/kg | Incidence (%) of emesis ([6]; 0.1 μmol/kg): 32% | Incidence (%) of emesis ([6]; 0.3 μmol/kg): 83% and 82% | Incidence (%) of emesis ([6]; 0.3 μmol/kg, listed as apomorphine): 83% | Incidence (%) of emesis ([6]; 1.0 μmol/kg): 48% | Incidence (%) of emesis ([6]; 3.0 μmol/kg): 32% | Incidence (%) of emesis ([6]; 10.0 μmol/kg): 32% | induction of emesis (in words) [6]: induced emesis at all doses
